Data set [1] concerns Plasmodium falciparum. Kind of data set: Resistance index, ratio of IC50 for chloroquine-resistant Plasmodium falciparum Dd2 to IC50 for chloroquine-sensitive Plasmodium falciparum D10. In kind it is functional.
The subject of the next data set is CHO. Kind of data set: Cytotoxicity against CHO cells by MTT assay. The following applies: Cricetulus griseus. In kind it is cell-based. (In general: Tetrazolium assays rely on reduction of a dye to a coloured formazan, in cell work by metabolically active cells.)
A short description of data set [2]: Selectivity index, ratio of IC50 for CHO cells to IC50 of chloroquine-sensitive Plasmodium falciparum D10. In kind it is toxicity, cell-based. To be noted: hamster, read-out: Ratio IC50.
Data set [3] has as its system Plasmodium falciparum. The data set is described as follows: Antiplasmodial activity against chloroquine-sensitive Plasmodium falciparum D10. The class given is functional, organism-based.
Data set [4] concerns Plasmodium falciparum. Kind of data set: Antiplasmodial activity against chloroquine-resistant Plasmodium falciparum Dd2. The class given is functional, organism-based.

The values below come from ChEMBL document CHEMBL1287698, “Artemisinin-quinoline hybrid-dimers: synthesis and in vitro antiplasmodial activity” (Bioorg Med Chem Lett, 2010).

As a reminder, the IC50 is the concentration that gives 50% inhibition. Read a high IC50 as weaker potency.

On to `CC[C@H]1CN2CCc3cc(OC)c(OC)cc3[C@@H]2C[C@@H]1C[C@H]1NCCc2cc(OC)c(OC)cc21` [EMETINE], for which, in the data set on Plasmodium falciparum [1], the “Ratio IC50” value amounted to 0.4.
Consider `C[C@H]1[C@@H](OCCN(CCCCNc2ccnc3cc(Cl)ccc23)CCO[C@H]2O[C@@H]3O[C@]4(C)CC[C@H]5[C@H](C)CC[C@@H]([C@H]2C)[C@@]35OO4)O[C@@H]2O[C@]3(C)CC[C@H]4[C@H](C)CC[C@@H]1[C@@]24OO3`, for which the IC50 is 0.00543 µM in the data set on CHO, 0.089 µM in the data set with Plasmodium falciparum [3] and 0.205 µM in the data set with Plasmodium falciparum [4]. Further, in data set [2], the selectivity ratio was determined as 61. Further, the “Ratio IC50” value in the data set with Plasmodium falciparum [1] stood at 2.
In the same order, the values of `C[C@H]1[C@@H](O[N+]2(CCO[C@H]3O[C@H]4O[C@]5(C)CC[C@H]6[C@H](C)CC[C@@H]([C@H]3C)[C@@]46OO5)CCN(CCNc3ccnc4cc(Cl)ccc34)CC2)O[C@@H]2O[C@]3(C)CC[C@H]4[C@H](C)CC[C@@H]1[C@@]24OO3.[Br-]` are 0.0748 µM, 0.0196 µM, 0.0557 µM, 3810 and 3.
Regarding `C[C@H]1[C@@H](OCCN(CCNc2ccnc3cc(Cl)ccc23)CCO[C@H]2O[C@@H]3O[C@]4(C)CC[C@H]5[C@H](C)CC[C@@H]([C@H]2C)[C@@]35OO4)O[C@@H]2O[C@]3(C)CC[C@H]4[C@H](C)CC[C@@H]1[C@@]24OO3`, the IC50 in the data set on CHO came out at 0.01 µM; with Plasmodium falciparum [3], 0.00737 µM; in the data set on Plasmodium falciparum [4], 0.0461 µM. Besides, in data set [2], the selectivity ratio turned out to be 1360. Besides, in the data set on Plasmodium falciparum [1], the “Ratio IC50” value came out at 6.
Regarding `C[C@H]1[C@@H](O)O[C@@H]2O[C@@]3(C)CC[C@H]4[C@H](C)CC[C@@H]1[C@@]24OO3` [ARTENIMOL], the IC50 amounted to 0.00511 µM in the data set on Plasmodium falciparum [3] and 0.00209 µM in the data set with Plasmodium falciparum [4].
For the molecule `C[C@H]1[C@@H](OCCN(CCCNc2ccnc3cc(Cl)ccc23)CCO[C@H]2O[C@@H]3O[C@]4(C)CC[C@H]5[C@H](C)CC[C@@H]([C@H]2C)[C@@]35OO4)O[C@@H]2O[C@]3(C)CC[C@H]4[C@H](C)CC[C@@H]1[C@@]24OO3`, the figures for the IC50 in the data set on CHO, in the data set on Plasmodium falciparum [3] and in the data set on Plasmodium falciparum [4] were 0.00068 µM, 0.00531 µM and 0.0284 µM, respectively. In addition, the selectivity ratio in data set [2] was found to be 128. In the data set on Plasmodium falciparum [1], the “Ratio IC50” value turned out to be 5.
